Results reported in PubChem BioAssay AID1259407 (Chemical Carcinogenesis Research Information System (CCRIS), 2018).
Activity calls are given as the source filed them. How the calls were made is not given here.

Tested on: CCRIS mutagenicity, Ames/micronucleus/aberration tests
Assay: CCRIS mutagenicity studies
[1] = Test System: AMES SALMONELLA TYPHIMURIUM, Strain/Indicator: TA100, Metabolic Activation: NONE, Method: STANDARD PLATE
[2] = Test System: AMES SALMONELLA TYPHIMURIUM, Strain/Indicator: TA98, Metabolic Activation: NONE, Method: PREINCUBATION
[3] = Test System: AMES SALMONELLA TYPHIMURIUM, Strain/Indicator: TA98, Metabolic Activation: RAT, LIVER, S-9, PCB, Method: PREINCUBATION
[4] = Test System: AMES SALMONELLA TYPHIMURIUM, Strain/Indicator: TA98, Metabolic Activation: NONE, Method: STANDARD PLATE
[5] = Test System: AMES SALMONELLA TYPHIMURIUM, Strain/Indicator: TA100, Metabolic Activation: NONE, Method: PREINCUBATION
[6] = Test System: MOUSE LYMPHOMA, Strain/Indicator: L5178Y (TK+/TK-), Metabolic Activation: NONE, Method: SUSPENSION/PLATE
[7] = Test System: AMES SALMONELLA TYPHIMURIUM, Strain/Indicator: TA98, Metabolic Activation: RAT, LIVER, S-9, AROCLOR 1254, Method: STANDARD PLATE
[8] = Test System: AMES SALMONELLA TYPHIMURIUM, Strain/Indicator: TA100, Metabolic Activation: RAT, LIVER, S-9, AROCLOR 1254, Method: STANDARD PLATE

## O=C(N/N=C/c1ccc([N+](=O)[O-])o1)c1ccc(O)cc1
Test System: AMES SALMONELLA TYPHIMURIUM, Strain/Indicator: TA100(FR1), Metabolic Activation: NONE, Method: STANDARD PLATE
  mutagenic call: active; positive
Test System: AMES SALMONELLA TYPHIMURIUM, Strain/Indicator: TA100(FR1), Metabolic Activation: RAT, LIVER, S-9, PHENOBARBITAL AND 3-METHYLCHOLANTHRENE, Method: STANDARD PLATE
  mutagenic call: active; positive
[1]
  mutagenic call: active; positive
Test System: AMES SALMONELLA TYPHIMURIUM, Strain/Indicator: TA100, Metabolic Activation: RAT, LIVER, S-9, PHENOBARBITAL AND 3-METHYLCHOLANTHRENE, Method: STANDARD PLATE
  mutagenic call: active; positive
Test System: CHINESE HAMSTER V-79, Strain/Indicator: V-79/6-THIOGUANINE, Metabolic Activation: NONE
  mutagenic call: inactive; negative
Test System: CHINESE HAMSTER V-79, Strain/Indicator: V-79/6-THIOGUANINE, Metabolic Activation: RAT, LIVER, HEPATOCYTES
  mutagenic call: inactive; negative
Test System: CHINESE HAMSTER V-79, Strain/Indicator: V-79/OUABAIN, Metabolic Activation: NONE
  mutagenic call: inactive; negative
Test System: CHINESE HAMSTER V-79, Strain/Indicator: V-79/OUABAIN, Metabolic Activation: RAT, LIVER, HEPATOCYTES
  mutagenic call: inactive; negative

## Nc1cccc2nc3ccccc3nc12
[2]
  mutagenic call: active; positive
[3]
  mutagenic call: inactive; negative

## O=C(Nc1ccc(F)cc1)c1csc([N+](=O)[O-])c1
[4]
  mutagenic call: active; positive
[1]
  mutagenic call: active; positive

## c1ccc([C@@H]2CO2)cc1
Test System: AMES SALMONELLA TYPHIMURIUM, Strain/Indicator: TA100, Metabolic Activation: NONE
  mutagenic call: active; positive
[1]
  mutagenic call: active; positive

## c1cnc2c(c1)ccc1c2ccc2cccnc21
Test System: AMES SALMONELLA TYPHIMURIUM, Strain/Indicator: TA100, Metabolic Activation: POOLED HUMAN LIVER MICROSOMES, Method: PREINCUBATION
  mutagenic call: active; positive
Test System: AMES SALMONELLA TYPHIMURIUM, Strain/Indicator: TA100, Metabolic Activation: RAT, LIVER, S-9, PHENOBARBITAL AND 5,6-BENZOFLAVONE, Method: PREINCUBATION
  mutagenic call: active; positive
Test System: Ames Salmonella typhimurium, Strain/Indicator: TA100, Metabolic Activation: Rat, Liver, S-9
  mutagenic call: active; positive
Test System: LACZ TRANSGENIC MOUSE (MUTATM MOUSE), Strain/Indicator: LACZ MUTANT FREQUENCY, Method: LIVER, SPLEEN, LUNG, KIDNEY, BONE MARROW, COLON HARVESTED 7 D AFTER LAST DOSE, DNA ISOLATED
  mutagenic call: active; positive; g:c to t:a transversions in all organs

## c1cc(OCC2CO2)cc(OCC2CO2)c1 (centres undefined)
End Point: IN VITRO CHROMOSOMAL ABERRATIONS, Test System: CHO CELLS, Metabolic Activation: NONE
  mutagenic call: active; positive
End Point: IN VITRO CHROMOSOMAL ABERRATIONS, Test System: CHO CELLS, Metabolic Activation: RAT, LIVER, S-9, AROCLOR 1254
  mutagenic call: active; positive; weak response
Test System: AMES SALMONELLA TYPHIMURIUM, Strain/Indicator: TA98, Metabolic Activation: HAMSTER, LIVER, S-9, AROCLOR 1254, Method: PREINCUBATION
  mutagenic call: inactive; negative
[2]
  mutagenic call: inactive; negative
Test System: AMES SALMONELLA TYPHIMURIUM, Strain/Indicator: TA98, Metabolic Activation: RAT, LIVER, S-9, AROCLOR 1254, Method: PREINCUBATION
  mutagenic call: inactive; negative
Test System: AMES SALMONELLA TYPHIMURIUM, Strain/Indicator: TA100, Metabolic Activation: HAMSTER, LIVER, S-9, AROCLOR 1254, Method: PREINCUBATION
  mutagenic call: active; positive
[5]
  mutagenic call: active; positive
Test System: AMES SALMONELLA TYPHIMURIUM, Strain/Indicator: TA100, Metabolic Activation: RAT, LIVER, S-9, AROCLOR 1254 (10%), Method: PREINCUBATION
  mutagenic call: active; positive
Test System: AMES SALMONELLA TYPHIMURIUM, Strain/Indicator: TA100, Metabolic Activation: RAT, LIVER, S-9, AROCLOR 1254, Method: PREINCUBATION
  mutagenic call: active; positive
Test System: AMES SALMONELLA TYPHIMURIUM, Strain/Indicator: TA1535, Metabolic Activation: HAMSTER, LIVER, S-9, AROCLOR 1254 (10%), Method: PREINCUBATION
  mutagenic call: active; positive
Test System: AMES SALMONELLA TYPHIMURIUM, Strain/Indicator: TA1535, Metabolic Activation: HAMSTER, LIVER, S-9, AROCLOR 1254, Method: PREINCUBATION
  mutagenic call: active; positive
Test System: AMES SALMONELLA TYPHIMURIUM, Strain/Indicator: TA1535, Metabolic Activation: NONE, Method: PREINCUBATION
  mutagenic call: active; positive
Test System: AMES SALMONELLA TYPHIMURIUM, Strain/Indicator: TA1535, Metabolic Activation: RAT, LIVER, S-9, AROCLOR 1254 (10%), Method: PREINCUBATION
  mutagenic call: active; positive
Test System: AMES SALMONELLA TYPHIMURIUM, Strain/Indicator: TA1535, Metabolic Activation: RAT, LIVER, S-9, AROCLOR 1254, Method: PREINCUBATION
  mutagenic call: active; positive
Test System: AMES SALMONELLA TYPHIMURIUM, Strain/Indicator: TA1537, Metabolic Activation: HAMSTER, LIVER, S-9, AROCLOR 1254, Method: PREINCUBATION
  mutagenic call: inactive; negative
Test System: AMES SALMONELLA TYPHIMURIUM, Strain/Indicator: TA1537, Metabolic Activation: NONE, Method: PREINCUBATION
  mutagenic call: inactive; negative
Test System: AMES SALMONELLA TYPHIMURIUM, Strain/Indicator: TA1537, Metabolic Activation: RAT, LIVER, S-9, AROCLOR 1254, Method: PREINCUBATION
  mutagenic call: inactive; negative
Test System: MOUSE LYMPHOMA, Strain/Indicator: L5178Y (HPRT), Metabolic Activation: NONE, Method: SUSPENSION/PLATE
  mutagenic call: inactive; negative
[6]
  mutagenic call: active; positive

## O=CC(=O)c1ccccc1
Test System: AMES SALMONELLA TYPHIMURIUM, Strain/Indicator: TA98, Metabolic Activation: HAMSTER, LIVER, S-9, AROCLOR 1254, Method: STANDARD PLATE
  mutagenic call: active; positive
[2]
  mutagenic call: inactive; negative
[4]
  mutagenic call: active; positive
[7]
  mutagenic call: active; positive
[3]
  mutagenic call: inactive; negative
Test System: AMES SALMONELLA TYPHIMURIUM, Strain/Indicator: TA100, Metabolic Activation: HAMSTER, LIVER, S-9, AROCLOR 1254, Method: STANDARD PLATE
  mutagenic call: active; positive
[5]
  mutagenic call: active; positive
[1]
  mutagenic call: active; positive
[8]
  mutagenic call: active; positive
Test System: AMES SALMONELLA TYPHIMURIUM, Strain/Indicator: TA100, Metabolic Activation: RAT, LIVER, S-9, PCB, Method: PREINCUBATION
  mutagenic call: inactive; negative
[6]
  mutagenic call: active; positive
Test System: Mouse lymphoma, Strain/Indicator: L5178Y (tk+/tk-), Metabolic Activation: None, Method: Suspension/plate
  mutagenic call: active; positive
Test System: Mouse lymphoma, Strain/Indicator: L5178Y (tk+/tk-), Metabolic Activation: Rat, Liver, S-9, Aroclor 1254, Method: Suspension/plate
  mutagenic call: inactive; negative

## CN(C)c1ccc(NS(=O)(=O)c2cccc3cccnc23)cc1
[4]
  mutagenic call: inactive; negative
[7]
  mutagenic call: active; positive
[1]
  mutagenic call: inactive; negative
[8]
  mutagenic call: active; positive
Test System: AMES SALMONELLA TYPHIMURIUM, Strain/Indicator: TA1535, Metabolic Activation: NONE, Method: STANDARD PLATE
  mutagenic call: inactive; negative
Test System: AMES SALMONELLA TYPHIMURIUM, Strain/Indicator: TA1535, Metabolic Activation: RAT, LIVER, S-9, AROCLOR 1254, Method: STANDARD PLATE
  mutagenic call: inactive; negative
Test System: AMES SALMONELLA TYPHIMURIUM, Strain/Indicator: TA1537, Metabolic Activation: NONE, Method: STANDARD PLATE
  mutagenic call: inactive; negative
Test System: AMES SALMONELLA TYPHIMURIUM, Strain/Indicator: TA1537, Metabolic Activation: RAT, LIVER, S-9, AROCLOR 1254, Method: STANDARD PLATE
  mutagenic call: inactive; negative

## NNC(=O)NC(=O)NN
Test System: E. COLI WP2, Strain/Indicator: WP2, Metabolic Activation: NONE, Method: STANDARD PLATE
  mutagenic call: active; positive
